By log P is commonly meant a log measure of how a compound divides between an organic and an aqueous phase. A high value points to higher lipophilicity.

Data set [1] is described as follows: Octanol/aqueous buffer partition coefficient (modified shake-flask). Type of data set: physicochemical. The settings on record: octanol/water, buffered at pH 7 with 10 mM Tris. An excerpt: To understand better the limitations of TPP in directing fluorophores to mitochondria, we prepared two additional TPP-derivatives, one based on 6-carboxyfluorescein (FL-TPP) and one on coumarin 343 (C343-TPP). […] To test this hypothesis, we conducted live cell fluorescence imaging experiments with FL-TPP. […] Not only did FL-TPP fail to accumulate in mitochondria, it was cell-impermeable under our imaging conditions. In contrast, the cationic C343-TPP strongly colocalized with MitoTracker Red in live HeLa cells (Pearson's r=0.72±0.02). To quantify the effect of hydrophobicity in mitochondrial-targeting, we measured the octanol/aqueous buffer partition coefficient (log P) for our TPP constructs and two MitoTracker dyes. We then tabulated the log P, charge of the predominate species in solution at physiological pH, and cellular localization for each dye (Table 1). […] Along with cationic charge, a minimum level of lipophilicity must be reached in order to evade endo/lysosomal sequestration and enable effective mitochondrial targeting.

For data set [2], the system named is HeLa cells. In words: Live cell fluorescence imaging: localization, co-localization and uptake. In kind it is cell-based. Particulars: fluorescence microscopy, live HeLa cells (Table 1). Here is the method:
FIG. 6 depicts live cell imaging of HeLa cells. 500 nM mitotracker Red was bath-applied along with 1 μM DA-ZP1-TPP for 30 min at 37° C. and 5% CO2. After exposure to 25 μM 1:2 zinc:pyrithione, fluorescent images were acquired and the co-localization of the two sensors was assessed. The calculated Pearson's correlation coefficient (r) was r=0.581±0.097 (n=9), which represents the average of 9 ROIs over three independent plates.
FIG. 14 depicts live cell imaging of HeLa cells. 1 μM Lysotracker Red was bath-applied along with 2 μM ZP1-TPP. The calculated Pearson's correlation coefficient (r) was r=0.45±0.15, which represents the average of 9 ROIs over three independent plates.
FIG. 24 depicts fluorescence images of live HeLa cells. HeLa cells were pretreated with a 1 μM solution of DA-ZP1-TPP in dye- and serum-free medium for 30 min (37° C., 5% CO2). […] The signal from MitoTracker Red (c) correlates well with the signal from the zinc-bound sensor (d). Pearson's r=0.64±0.1 (n=18).
FIG. 27 depicts deconvoluted fluorescence microscopy images of live HeLa cells pretreated with ZP1-R9 (5 μM) or DA-ZP1-R9 (2.5 μM) and the indicated organelle stain. Top, ZP1-R9: (a) Differential interference contrast (DIC) image, (b) signal from ZP1-R9, (c) signal from LysoTracker Red, (d) overlay of (b) and (c). Pearson's r=0.42±0.16 (n=8). Bottom, DA-ZP1-R9: (e) DIC, (f) signal from DA-ZP1-R9 after treatment with 25 μM ZnPT, (g) signal from Hoechst 33258, (h) overlay of (f) and (g). Scale bar=25 μm.
FIG. 29 depicts deconvoluted fluorescence microscopy images of live HeLa cells pretreated with 1 μM DA-ZP1-R9 and 100 nM Dextran Red. (a) Differential interference contrast (DIC), (b) signal from DA-ZP1-R9 after addition of 25 μM ZnPT (c) signal from Dextran Red, (d) overlay of (b) and (c). Pearson's r=0.55±0.12 (n=11). Scale bar=25 μm.
FIG. 31 depicts deconvoluted fluorescence microscopy images of ZP1-(Fxr)3 and DA-ZP1-r(Fxr)3 in live HeLa cells. Top, cells pretreated with medium containing 2.5 μM of ZP1-(Fxr)3: (a) Differential interference contrast (DIC) image, (b) signal from ZP1-(Fxr)3, (c) signal from Dextran Red, (d) overlay of (b) and (c). Pearson's r=0.71±0.07. Bottom, cells pretreated with 1 μM DA-ZP1-r(Fxr)3: (e) DIC, (f) signal from DA-ZP1-r(Fx)3 after treatment with 25 μM ZnPT, (g) signal from MitoTracker Red, (h) overlay of (f) and (g). Pearson's r=0.41±0.09. Scale bar=25 μm.
FIG. 33 depicts deconvoluted fluorescence microscopy images of DCF-r(Fxr)3 and DA-DCF-r(Fxr)3 in live HeLa cells. Top, cells pretreated with 5 μM DCF-r(Fxr)3 and 500 nM MitoTracker Red for 30 min. (a) differential contrast image (DIC), (b) signal from DCF-r(Fxr)3, (c) signal from MitoTracker Red. Bottom, cells pretreated with 5 μM DA-DCF-r(Fxr)3 and 500 nM MitoTracker Red for 30 min. (d) DIC, (e) signal from DCF-r(Fxr)3, (f) signal from MitoTracker Red. The global Pearson's r=0.57±0.16 (n=37). Cells with high levels of DA-DCF-r(Fxr)3 (e, red outline) have a higher Pearson's r=0.83±0.08 (n=10). Scale bar=25 μm.
We used HeLa cells as a model system to evaluate the ability of DA-ZP1-TPP to target mitochondria and respond to changes in intracellular zinc levels. […] Over a two-hour period, the fluorescence intensity from the sensor remained constant, implying that the acetylated form is stable against intracellular esterases (FIG. 24e). […] Addition of 100 μM TPEN attenuated the fluorescence signal by ˜2.4-fold (FIG. 24f). […]

In data set [3] the test system is HeLa cells. In words: Live cell fluorescence imaging: response to intracellular zinc (ZnPT/TPEN) and stability in cellulo. In kind it is cell-based. Here is the method: FIG. 5 depicts live cell imaging of HeLa cells that were bathed in a 1 μM solution of DA-ZP1-TPP in dye and serum free DMEM media for 30 min at 37° C. and 5% CO2. […] There was minimal fluorescent signal from DA-ZP1-TPP, consistent with the quenched fluorescent form of the sensor (top, right).
FIG. 24 depicts fluorescence images of live HeLa cells. HeLa cells were pretreated with a 1 μM solution of DA-ZP1-TPP in dye- and serum-free medium for 30 min (37° C., 5% CO2). […] The signal from MitoTracker Red (c) correlates well with the signal from the zinc-bound sensor (d). Pearson's r=0.64±0.1 (n=18). […]
We used HeLa cells as a model system to evaluate the ability of DA-ZP1-TPP to target mitochondria and respond to changes in intracellular zinc levels. Live HeLa cells were pretreated with medium containing 1 μM DA-ZP1-TPP and 250 nM MitoTracker Red for 30 min (37° C., 5% CO2) prior to imaging (FIG. 24). […] Over a two-hour period, the fluorescence intensity from the sensor remained constant, implying that the acetylated form is stable against intracellular esterases (FIG. 24e). […] Addition of 100 μM TPEN attenuated the fluorescence signal by ˜2.4-fold (FIG. 24f). […] We anticipate that this strategy will be applicable to related families of fluorophores. […]

Values joined by “and” are separate entries in the source; they are usually repeats but may differ in a detail not shown here. Equal entries are not always repeated.

On to `CC(=O)Oc1c(Cl)cc2c(c1CN(Cc1ccccn1)Cc1ccccn1)Oc1c(cc(Cl)c(OC(C)=O)c1CN(Cc1ccccn1)Cc1ccccn1)C21OC(=O)c2ccc(C(=O)NCC[P+](c3ccccc3)(c3ccccc3)c3ccccc3)cc21` [DA-ZP1-TPP], for which, in data set [1], the “log P” value amounted to 0.74±0.18. Further, the Localization result in the data set on HeLa cells [2] is “Mitochondria”. Moreover, the “increase in fluorescence intensity on ZnPT” value in the data set with HeLa cells [3] (live HeLa, 1 μM probe, 50 μM ZnPT) is ~12.1 fold and ~12 fold. Also, the “period over which signal intensity was stable in cellulo” value in the data set on HeLa cells [3] (live HeLa, 1 μM, no added zinc) is 2 h. Further, the “attenuation of fluorescence signal by TPEN” value in the data set on HeLa cells [3] (live HeLa, 100 μM TPEN after 50 μM ZnPT) was around 2.4 fold.

As for `O=C(NCC[P+](c1ccccc1)(c1ccccc1)c1ccccc1)c1ccc2c(c1)C1(OC2=O)c2cc(Cl)c(O)c(CN(Cc3ccccn3)Cc3ccccn3)c2Oc2c1cc(Cl)c(O)c2CN(Cc1ccccn1)Cc1ccccn1` [ZP1-TPP], the “log P” value in data set [1] is −0.11 ± 0.01. Further, the Localization entry in the data set with HeLa cells [2] was “Endo/lysosome”. Moreover, the “response to changing intracellular zinc levels” value in the data set on HeLa cells [3] (live HeLa cells) is “did not respond significantly to changing intracellular zinc levels”.

The values are drawn from US9700637B2, “Reaction-based fluorescent probes for detecting zinc” (Massachusetts Institute of Technology, priority 2013, dated 2017).
